Assay results: PMC7604414, “Favipiravir at high doses has potent antiviral activity in SARS-CoV-2−infected hamsters, whereas hydroxychloroquine lacks activity” (Proceedings of the National Academy of Sciences of the …, 2020)

Experiments:
SARS-CoV-2 [1] = system: SARS-CoV-2; set-up: species or system Syrian hamsters; details: hamster, in vivo
SARS-CoV-2 [2] = system: SARS-CoV-2; set-up: method as in PMID 33741945; details: upon favipiravir treatment; cited from earlier work

NC(=O)c1nc(F)c[nH]c1=O [favipiravir]
increase in mean virus variants vs untreated hamsters (SARS-CoV-2 [1]): 3.2 fold
increase of mean number of mutations in the viral RNA, factor (SARS-CoV-2 [2]): more than three
